Source: patent US20200338084A1, “INHIBITORS OF LOW MOLECULAR WEIGHT PROTEIN TYROSINE PHOSPHATASE (LMPTP) AND USES THEREOF” (Sanford Burnham Prebys Medical Discovery Institute, priority 2018, published 2020)

Biological target: T1, human LMPTP-A (Homo sapiens, UniProt P24666)
T1 sequence (P24666 1-158): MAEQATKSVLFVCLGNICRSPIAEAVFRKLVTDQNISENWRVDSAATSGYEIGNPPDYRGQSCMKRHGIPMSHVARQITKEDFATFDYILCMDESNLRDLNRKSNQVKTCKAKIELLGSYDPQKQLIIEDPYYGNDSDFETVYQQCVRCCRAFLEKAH
Experiment: Enzyme Assay of Inhibition of LMPTP-A
Assay type: biochemical
Conditions: phosphatase assay, OMFP or pNPP substrate, 50 mM Bis-Tris pH 6.0, 37° C.
Description: Phosphatase assays were performed in buffer containing 50 mM Bis-Tris, pH 6.0, 1 mM DTT and 0.01% Triton X-100 at 37° C. For assays conducted with 3-O-methylfluorescein phosphate (OMFP) as substrate, fluorescence was monitored continuously at λex=485 and λem=525 nm. For assays conducted with para-nitrophenylphosphate (pNPP) as substrate, the reaction was stopped by addition of 2× reaction volume of 1 M NaOH, and absorbance was measured at 405 nm. IC50 values of compounds disclosed herein were determined from plots of inhibitor concentration versus percentage of enzyme activity. For inhibitor selectivity assays, each PTP was incubated with either 0.4 mM OMFP or 5 mM pNPP in the presence of 40 μM compound or DMSO. […] For the inhibitor reversibility assay, 50 nM human LMPTP-A was pre-incubated with 10 μM of compound disclosed herein or DMSO for 5 min. The enzyme was diluted 100× in phosphatase assay buffer containing 0.4 mM OMFP and fluorescence was measured at the indicated time points.

| IC50 [nM] | Molecule |
| --- | --- |
| 1000 to 20000 | Nc1ncn(Cc2c(F)cccc2F)c2ncnc1-2 |
| ≤ 1000 | 8-[(1E)-2-(4-fluorophenyl)vinyl]-3-[(2,6-dichlorophenyl)methyl]-3-hydropurine-6-ylamine |
| ≤ 1000 | COC(=O)c1cccc(Cl)c1Cn1cnc(N)c2ncnc1-2 [2-(6-Amino-purin-3-ylmethyl)-3-chloro-benzoic acid methyl ester] |
| ≤ 1000 | NC(=O)c1cccc(Cl)c1Cn1cnc(N)c2ncnc1-2 [2-((6-amino-3H-purin-3-yl)methyl)-3-chlorobenzamide] |
| 1000 to 20000 | Oc1ccccc1Nc1ncn(Cc2c(Cl)cccc2Cl)c2ncnc1-2 [2-({3-[(2,6-Dichlorophenyl)methyl]-3-hydropurin-6-yl}amino)phenol] |
| ≤ 1000 | N#Cc1ccccc1-c1nc2c(N)ncn(Cc3c(Cl)cccc3Cl)c-2n1 [2-{6-Amino-3-[(2,6-dichlorophenyl)methyl]-3-hydropurin-8-yl}benzenecarbonitrile] |
| 1000 to 20000 | Nc1ncn(Cc2c(F)ccc(F)c2F)c2ncnc1-2 [3-(2,3,6-Trifluoro-benzyl)-3H-purin-6-ylamine] |
| 1000 to 20000 | Nc1ncn(Cc2cccc(Cl)c2Cl)c2ncnc1-2 [3-(2,3-Dichloro-benzyl)-3H-purin-6-ylamine] |
| 1000 to 20000 | Clc1cccc(Cn2cnc(NCc3ccco3)c3ncnc2-3)c1Cl [3-(2,3-dichlorobenzyl)-N-(furan-2-ylmethyl)-3H-purin-6-amine] |
| ≥ 20000 | Clc1cccc(Cl)c1Cn1cnc(N2CCOCC2)c2ncnc1-2 [3-(2,6-Dichloro-benzyl)-6-morpholin-4-yl-3H-purine] |
| ≥ 20000 | Clc1cccc(Cl)c1Cn1cnc(N2CCCC2)c2ncnc1-2 [3-(2,6-Dichloro-benzyl)-6-pyrrolidin-1-yl-3H-purine] |
| ≤ 1000 | Nc1ncn(Cc2c(Cl)cccc2Cl)c2nc(C3=CCNCC3)nc1-2 [3-(2,6-Dichloro-benzyl)-8-(1,2,3,6-tetrahydro-pyridin-4-yl)-3H-purin-6-ylamine] |
| 1000 to 20000 | COc1ccc(Nc2ncn(Cc3c(Cl)cccc3Cl)c3ncnc2-3)cc1 [3-(2,6-Dichlorobenzyl)-N-(4-methoxyphenyl)-3H-purin-6-amine] |
| ≤ 1000 | Nc1ncn(Cc2c(Br)cccc2Br)c2ncnc1-2 [3-(2,6-dibromobenzyl)-3H-purin-6-amine] |
| ≤ 1000 | Cc1noc(C)c1-c1nc2c(N)ncn(Cc3c(Cl)cccc3Cl)c-2n1 [3-(2,6-dichlorobenzyl)-8-(3,5-dimethylisoxazol-4-yl)-3H-purin-6-amine] |
| ≤ 1000 | Nc1ncn(Cc2c(Cl)cccc2Cl)c2nc(C3=CCOCC3)nc1-2 [3-(2,6-dichlorobenzyl)-8-(3,6-dihydro-2H-pyran-4-yl)-3H-purin-6-amine] |

| IC50 [nM] | Molecule |
| --- | --- |
| 1000 to 20000 | COc1ccc(CNc2ncn(Cc3c(Cl)cccc3Cl)c3ncnc2-3)c(OC)c1 [3-(2,6-dichlorobenzyl)-N-(2,4-dimethoxybenzyl)-3H-purin-6-amine] |
| 1000 to 20000 | FC(F)Oc1cccc(Nc2ncn(Cc3c(Cl)cccc3Cl)c3ncnc2-3)c1 [3-(2,6-dichlorobenzyl)-N-(3-(difluoromethoxy)phenyl)-3H-purin-6-amine] |
| 1000 to 20000 | FC(F)(F)c1cccc(Nc2ncn(Cc3c(Cl)cccc3Cl)c3ncnc2-3)c1 [3-(2,6-dichlorobenzyl)-N-(3-(trifluoromethyl)phenyl)-3H-purin-6-amine] |
| 1000 to 20000 | Cc1cccc(C)c1Cn1cnc(N)c2ncnc1-2 [3-(2,6-dimethylbenzyl)-3H-purin-6-amine] |
| 1000 to 20000 | Nc1cccc(Cl)c1Cn1cnc(N)c2ncnc1-2 [3-(2-Amino-6-chlorobenzyl)-3H-purin-6-amine] |
| ≤ 1000 | Nc1ncn(Cc2c(F)cccc2Cl)c2ncnc1-2 [3-(2-Chloro-6-fluoro-benzyl)-3H-purin-6-ylamine] |
| ≤ 1000 | Nc1ncn(Cc2c(Cl)cccc2[N+](=O)[O-])c2ncnc1-2 [3-(2-Chloro-6-nitrobenzyl)-3H-purin-6-amine] |
| 1000 to 20000 | Nc1ncn(Cc2ccccc2Cl)c2ncnc1-2 [3-(2-Chloro-benzyl)-3H-purin-6-ylamine] |
| ≤ 1000 | Nc1ncn(Cc2c(F)cccc2I)c2ncnc1-2 [3-(2-Fluoro-6-iodo-benzyl)-3H-purin-6-ylamine] |
| 1000 to 20000 | Cc1ccccc1Cn1cnc(N)c2ncnc1-2 [3-(2-Methyl-benzyl)-3H-purin-6-ylamine] |
| ≤ 1000 | Nc1ncn(Cc2c(Cl)cccc2Br)c2ncnc1-2 [3-(2-bromo-6-chlorobenzyl)-3H-purin-6-amine] |
| 1000 to 20000 | Nc1ncn(Cc2ccc(C(F)(F)F)cc2)c2ncnc1-2 [3-(4-(trifluoromethyl)benzyl)-3H-purin-6-amine] |
| ≥ 20000 | Nc1ncn(Cc2ccc(Cl)cc2)c2ncnc1-2 [3-(4-Chloro-benzyl)-3H-purin-6-ylamine] |
| ≥ 20000 | Nc1ncn(Cc2ccc(F)cc2)c2ncnc1-2 [3-(4-fluorobenzyl)-3H-purin-6-amine] |
| 1000 to 20000 | Nc1ncn(Cc2cccc(O)c2)c2ncnc1-2 [3-(6-Amino-purin-3-ylmethyl)-phenol] |
| ≥ 20000 | Cn1ccnc1Cn1cnc(N)c2ncnc1-2 [3-((1-methyl-1H-imidazol-2-yl)methyl)-3H-purin-6-amine] |

The next lines start with the molecule.

| Molecule | IC50 [nM] |
| --- | --- |
| 3-[(2,6-dichlorophenyl)methyl]-8-[(4-chlorophenyl)methyl]-3-hydropurine-6-ylamine | ≤ 1000 |
| CC(=O)c1ccc(Nc2ncn(Cc3c(Cl)cccc3Cl)c3ncnc2-3)cc1 [1-Acetyl-4-({3-[(2,6-dichlorophenyl)methyl](3-hydropurin-6-yl)}amino)benzene] | 1000 to 20000 |
| N#Cc1ccccc1Cn1cnc(NCc2ccco2)c2ncnc1-2 [2-((6-((Furan-2-ylmethyl)amino)-3H-purin-3-yl)methyl)benzonitrile] | ≥ 20000 |
| Nc1ncn(Cc2c(Cl)cccc2C(=O)O)c2ncnc1-2 [2-((6-amino-3H-purin-3-yl)methyl)-3-chlorobenzoic acid] | 1000 to 20000 |
| N#Cc1cccc(Cl)c1Cn1cnc(N)c2ncnc1-2 [2-((6-amino-3H-purin-3-yl)methyl)-3-chlorobenzonitrile] | ≤ 1000 |
| OCCNc1ncn(Cc2c(Cl)cccc2Cl)c2ncnc1-2 [2-[3-(2,6-Dichloro-benzyl)-3H-purin-6-ylamino]-ethanol] | 1000 to 20000 |
| Nc1ncn(Cc2ccc(Cl)cc2Cl)c2ncnc1-2 [3-(2,4-Dichloro-benzyl)-3H-purin-6-ylamine] | 1000 to 20000 |
| Nc1ncn(Cc2ccc(F)cc2F)c2ncnc1-2 [3-(2,4-difluorobenzyl)-3H-purin-6-amine] | 1000 to 20000 |
| Nc1ncn(Cc2cc(Cl)ccc2Cl)c2ncnc1-2 [3-(2,5-Dichloro-benzyl)-3H-purin-6-ylamine] | 1000 to 20000 |
| Clc1cccc(Cl)c1Cn1cnc(N2CCCCC2)c2ncnc1-2 [3-(2,6-Dichloro-benzyl)-6-piperidin-1-yl-3H-purine] | ≥ 20000 |
| FC(F)(F)Oc1cccc(Nc2ncn(Cc3c(Cl)cccc3Cl)c3ncnc2-3)c1 [3-(2,6-Dichlorobenzyl)-N-(3-(trifluoromethoxy)phenyl)-3H-purin-6-amine] | 1000 to 20000 |
| FC(F)Oc1ccc(Nc2ncn(Cc3c(Cl)cccc3Cl)c3ncnc2-3)cc1 [3-(2,6-Dichlorobenzyl)-N-(4-(difluoromethoxy)phenyl)-3H-purin-6-amine] | 1000 to 20000 |
| Cc1cccc(C)c1Cn1cnc(NCc2ccco2)c2ncnc1-2 [3-(2,6-Dimethylbenzyl)-n-(furan-2-ylmethyl)-3h-purin-6-amine] | 1000 to 20000 |
| FC(F)Oc1ccccc1Nc1ncn(Cc2c(Cl)cccc2Cl)c2ncnc1-2 [3-(2,6-dichlorobenzyl)-N-(2-(difluoromethoxy)plienyl)-3H-purin-6-amine] | 1000 to 20000 |
| FC(F)(F)c1ccc(Nc2ncn(Cc3c(Cl)cccc3Cl)c3ncnc2-3)cc1 [3-(2,6-dichlorobenzyl)-N-(4-(trifluoromethyl)phenyl)-3H-purin-6-amine] | 1000 to 20000 |
| Nc1ncn(Cc2ccccc2Br)c2ncnc1-2 [3-(2-Bromo-benzyl)-3H-purin-6-ylamine] | 1000 to 20000 |
| Nc1ncn(Cc2c(Cl)cccc2I)c2ncnc1-2 [3-(2-Chloro-6-iodo-benzyl)-3H-purin-6-ylamine] | ≤ 1000 |
| Nc1ncn(Cc2ccccc2F)c2ncnc1-2 [3-(2-Fluoro-benzyl)-3H-purin-6-ylamine] | 1000 to 20000 |
| COc1cccc(Cl)c1Cn1cnc(N)c2ncnc1-2 [3-(2-chloro-6-methoxybenzyl)-3H-purin-6-amine] | 1000 to 20000 |
| Cc1cccc(Cl)c1Cn1cnc(N)c2ncnc1-2 [3-(2-chloro-6-methylbenzyl)-3H-purin-6-amine] | ≤ 1000 |
| Nc1ncn(Cc2cccc(F)c2)c2ncnc1-2 [3-(3-Fluoro-benzyl)-3H-purin-6-ylamine] | 1000 to 20000 |
| Nc1ncn(Cc2cccc(Cl)c2)c2ncnc1-2 [3-(3-chlorobenzyl)-3H-purin-6-amine] | ≥ 20000 |
| Nc1ncn(Cc2ccc(Br)cc2)c2ncnc1-2 [3-(4-Bromo-benzyl)-3H-purin-6-ylamine] | 1000 to 20000 |
| COc1ccc(Cn2cnc(N)c3ncnc2-3)cc1 [3-(4-Methoxy-benzyl)-3H-purin-6-ylamine] | 1000 to 20000 |
| Cc1ccc(Cn2cnc(N)c3ncnc2-3)cc1 [3-(4-Methyl-benzyl)-3H-purin-6-ylamine] | ≥ 20000 |
| Cc1cccc(Cn2cnc(N)c3ncnc2-3)n1 [3-(6-Methyl-pyridin-2-ylmethyl)-3H-purin-6-ylamine] | ≥ 20000 |
